Reference: patent US20240294551A1 (AMGEN INC., priority 2022, published 2024)
Read-outs that look alike come from different tables or passages of the source.

Legend:
[1] = target: His-tagged KRAS G12D protein (Homo sapiens (Human), UniProt P01116, G12D); assay: KRAS G12D TR-FRET Assay; type: binding
Procedure, shortened: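 His-tagged KRAS G12D (diluted to 20 nM in pH 7.4 HEPES buffer with 10 mM MgCl2 and 10 μM GDP) was preincubated with titrated compound for 30 min at room temperature. Biotinylated KRPep-2d peptide (diluted to 20 nM) was then added for 1 h, and displacement was monitored by TR-FRET.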

[2] = test system: Phosphorylation of ERK1/2 in AsPC-1 cells; assay: Phospho-ERK1/2 MSD Assay; type: cell-based, human
Procedure, shortened: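 Read-out: MSD electrochemiluminescent detection of phosphorylated ERK1/2 in whole-cell lysates, fitted to a 4-parameter logistic curve for IC50. Prior to lysis, AsPC-1 cells (25,000 per well) received a 2 h compound dose-response at 37 °C.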

AsPC-1 cells = assay: AsPC-1 CTG Assay (CellTiter-Glo cell viability); type: cell-based, human; conditions: first value of the cell, read-out: G12D/C/V Cell Proliferation CTG (72 h) AsPC-1
Procedure, shortened: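 Human pancreatic AsPC-1 or colon SW620 cells in RPMI 1640 with 10% FBS, seeded overnight, then exposed to serially diluted compound for 72 h at 37 °C. CellTiter-Glo luminescence normalized to DMSO control; IC50 from a 4-parameter logistic model.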

[3] = target: GDP-bound KRAS protein (aa 1-169), containing both G12D and C118A amino acid substitutions (Homo sapiens (Human), UniProt P01116, C118A/G12D); assay: KRAS G12D Coupled Nucleotide Exchange Assay; type: biochemical
Sequence of GDP-bound KRAS protein (aa 1-169), containing both G12D and C118A amino acid substitutions (P01116 other isoform, or with tags, fused parts or gaps G12D/C118A): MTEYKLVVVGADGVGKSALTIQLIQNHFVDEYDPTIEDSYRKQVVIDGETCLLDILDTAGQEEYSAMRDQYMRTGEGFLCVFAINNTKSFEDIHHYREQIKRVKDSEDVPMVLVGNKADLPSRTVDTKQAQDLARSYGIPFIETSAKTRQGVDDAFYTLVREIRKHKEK

[4] = read-out: KRAS G12D Binding IC50
[5] = Homo sapiens, ASPC1, 2 h, read-out: 2 h p-ERK (AsPC-1 cells), IC50
[6] = Homo sapiens, ASPC1, 72 h, AsPC-1, 72 h
[7] = read-out: KRAS G12D Coupled Exchange IC50

Sequence of His-tagged KRAS G12D protein (P01116 other isoform, or with tags, fused parts or gaps G12D): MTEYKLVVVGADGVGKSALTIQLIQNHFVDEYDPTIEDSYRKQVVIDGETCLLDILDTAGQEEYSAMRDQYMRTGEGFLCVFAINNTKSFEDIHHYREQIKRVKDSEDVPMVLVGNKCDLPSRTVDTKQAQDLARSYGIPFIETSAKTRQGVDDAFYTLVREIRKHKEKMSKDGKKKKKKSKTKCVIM

Fc1cc2[nH]ncc2c2c1CCCCOC[C@@H]1CCCCN(C1)c1nc(OC[C@@]34CCCN3C[C@H](F)C4)nc3c(F)c-2ncc13 [Example 239, (26R)-18,32-difluoro-4-(((2R,7aS)-2-fluorotetrahydro-1H-pyrrolo[1,2-a]pyrrol-7a(5H)-yl)methoxy)-24-oxa-1,3,5,9,14,15-hexaazahexacyclo[24.4.1.1~6, 10~.0~2,7~.0~11,19~.0~12,16~]dotriaconta-2,4,6(32),7,9,11,13,16,18-nonaene]
IC50 [1, 4]: 6 nM | IC50 [2, 5]: 82.9 nM | IC50 (AsPC-1 cells; [6]): 527 nM | IC50 [3, 7]: 5 nM

Cc1cc2[nH]ncc2c2c1CCCC(=O)OCCC1CCCN(C1)c1nc(OC[C@@]34CCCN3C[C@H](F)C4)nc3c(F)c-2ncc13 (stereo partly drawn) [Example 105]
IC50 [1, 4]: 14 nM | IC50 [2, 5]: 245 nM | IC50 (AsPC-1 cells; [6]): 1940 nM | IC50 [3, 7]: 8 nM

CN(C)CC1(COc2nc3c4cnc(c(F)c4n2)-c2c(c(Cl)cc4[nH]ncc24)CCCCOCC2(F)CCCCN3C2)CC1 (stereo in doubt) [Example 401, 1-(1-((((26S)-18-chloro-26,32-difluoro-24-oxa-1,3,5,9,14,15-hexaazahexacyclo[24.4.1.1~6,10~.0~2,7~.0~11,19~.0~12,16~]dotriaconta-2,4,6,8,10(32),11,13,16,18-nonaen-4-yl)oxy)methyl)cyclopropyl)-N,N-dimethylmethanamine]
IC50 ([1]; TR-FRET, read-out: KRAS G12D Binding): 5 nM | IC50 ([2]; Homo sapiens, ASPC1, 2 h, read-out: 2 h p-ERK (AsPC-1 cells)): 289 nM | IC50 (AsPC-1 cells; Homo sapiens, ASPC1, 72 h, AsPC-1 cells (G12D), 72 h): 386 nM | IC50 ([3]; 2 hours compound pre-incubation, read-out: KRAS G12D Coupled Exchange): 3 nM

CO[C@@H]1C[C@@H](COc2nc3c4cnc(c(F)c4n2)-c2c(c(Cl)cc4[nH]ncc24)CCCOC(=O)O[C@]2(C)COCCN3C2)N(C)C1 [Example 319, (26S)-18-chloro-32-fluoro-4-(((2S,4R)-4-methoxy-1-methyl-2-pyrrolidinyl)methoxy)-26-methyl-23,25,28-trioxa-1,3,5,9,14,15-hexaazahexacyclo[24.4.1.1~6,10~.0~2,7~.0~11,19~.0~12,16~]dotriaconta-2,4,6,8,10(32),11,13,16,18-nonaen-24-one]
IC50 [1, 4]: 6 nM | IC50 [2, 5]: 26.7 nM | IC50 (AsPC-1 cells; [6]): 134 nM | IC50 [3, 7]: 3 nM

O=C1CCCc2c(Cl)cc3[nH]ncc3c2-c2ncc3c(nc(OC[C@@]45CCCN4C[C@H](F)C5)nc3c2F)N2CCCC3(CC(C3)N1)C2 [Example 274]
IC50 [1, 4]: 32 nM | IC50 [2, 5]: 1780 nM | IC50 (AsPC-1 cells; [6]): 5000 nM | IC50 [3, 7]: 16 nM

Cc1cc2[nH]ncc2c2c1CCCC(=O)OC[C@@H]1CCCN(C1)c1nc(OC[C@@]34CCCN3C[C@H](F)C4)nc3c(F)c-2ncc13 [Example 106]
IC50 [1, 4]: 4 nM | IC50 [2, 5]: 29 nM | IC50 (AsPC-1 cells; [6]): 270 nM | IC50 [3, 7]: 1 nM

O[C@@H]1C[C@@H]2CN(C1)c1nc(OC[C@@]34CCCN3C[C@H](F)C4)nc3c(F)c(ncc13)-c1c(c(Cl)cc3[nH]ncc13)CCCn1ncc2n1 (single isomer, unassigned) [Example 299]
IC50 [1, 4]: 30 nM | IC50 ([2]; 2 h, read-out: 2 h p-ERK (AsPC-1 cells), IC50): 467 nM | IC50 (AsPC-1 cells; AsPC-1, 72 h): 5000 nM | IC50 [3, 7]: 21 nM

CN1CCC[C@H]1COc1nc2c3cnc(c(F)c3n1)-c1cc(O)cc3ccc(F)c(c13)CCOC(=O)O[C@]1(C)COCCN2C1 [Example 344, (16S)-23,32-difluoro-28-hydroxy-16-methyl-8-(((2S)-1-methyl-2-pyrrolidinyl)methoxy)-14,17,19-trioxa-3,7,9,11-tetraazahexacyclo[20.7.1.1~2,6~.1~11,16~.0~5,10~.0~26,30~]dotriaconta-1(30),2(32),3,5,7,9,22,24,26,28-decaen-18-one]
IC50 [1, 4]: 8 nM | IC50 [2, 5]: 5.7 nM | IC50 (AsPC-1 cells; [6]): 156 nM | IC50 [3, 7]: 3 nM

C[C@@]12CCCN(C1)c1nc(OC[C@@]34CCCN3C[C@H](F)C4)nc3c(F)c(ncc13)-c1cccc3ccc(F)c(c13)CC[C@@H](F)C(=O)N2 [Example 2, (15R,18R)-18,22,31-trifluoro-8-(((2R,7aS)-2-fluorotetrahydro-1H-pyrrolo[1,2-a]pyrrol-7a(5H)-yl)methoxy)-15-methyl-3,7,9,11,16-pentaazahexacyclo[19.7.1.1˜2,6˜.1˜11,15˜.0˜5,10˜.0˜25,29˜]hentriaconta-1(28),2(31),3,5,7,9,21,23,25(29),26-decaen-17-one]
IC50 [1, 4]: 50 nM | IC50 [2, 5]: 1400 nM | IC50 (AsPC-1 cells; [6]): 4110 nM | IC50 [3, 7]: 24 nM
